Reference: PubChem BioAssay AID330 (DTP/NCI, 2004)
Values joined by “and” are separate entries in the source; they are usually repeats but may differ in a detail not shown here. Equal values may be shown once. Toxic doses and inconclusive results are not listed. Rule for the calls: active = survival T/C of 150% or more; inactive = T/C below 125% in these data.

Test system: P388 leukemia ip, CD2F1 mice, survival T/C
Test: NCI In Vivo Anticancer Drug Screen. Data for tumor model P388 Leukemia (intraperitoneal) in CD2F1 (CDF1) mice
Details: endpoint: median survival time, higher = longer survival
Procedure, shortened: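 Mice carrying the transplanted tumor received test compound or vehicle. Survival was recorded in each group, and the value is the treated-group measurement divided by that of the vehicle-treated control group.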

[1] = dose: 100.0 mg/kg/injection, schedule: Q04DX003 (ip), vehicle: suspension in saline
[2] = dose: 200.0 mg/kg/injection, schedule: Q04DX003 (ip), vehicle: suspension in saline
[3] = dose: 100.0 mg/kg/injection, schedule: Q04DX003 (ip), vehicle: saline with Tween-80
[4] = dose: 200.0 mg/kg/injection, schedule: Q04DX003 (ip), vehicle: saline with Tween-80
[5] = dose: 400.0 mg/kg/injection, schedule: Q04DX003 (ip), vehicle: saline with Tween-80
[6] = dose: 100.0 mg/kg/injection, schedule: Q04DX003 (ip), vehicle: Klucel (hydroxypropylcellulose) (HPC)
[7] = dose: 200.0 mg/kg/injection, schedule: Q04DX003 (ip), vehicle: Klucel (hydroxypropylcellulose) (HPC)
[8] = dose: 400.0 mg/kg/injection, schedule: Q04DX003 (ip), vehicle: Klucel (hydroxypropylcellulose) (HPC)
[9] = dose: 50.0 mg/kg/injection, schedule: Q01DX009 (ip), vehicle: saline with Tween-80
[10] = dose: 100.0 mg/kg/injection, schedule: Q01DX009 (ip), vehicle: saline with Tween-80
[11] = dose: 12.5 mg/kg/injection, schedule: Q01DX009 (ip), vehicle: saline
[12] = dose: 25.0 mg/kg/injection, schedule: Q01DX009 (ip), vehicle: saline
[13] = dose: 50.0 mg/kg/injection, schedule: Q01DX009 (ip), vehicle: saline
[14] = dose: 200.0 mg/kg/injection, schedule: Q01DX009 (ip), vehicle: saline

Measured: T/C

Cc1ccc(Nc2ccc(Cl)cc2[N+](=O)[O-])cc1
inactive: dose: 15.0 mg/kg/injection, schedule: Q01DX005 (ip), vehicle: Klucel + Tween-80 95 % of control | dose: 30.0 mg/kg/injection, schedule: Q01DX005 (ip), vehicle: Klucel + Tween-80 98 % of control | dose: 60.0 mg/kg/injection, schedule: Q01DX005 (ip), vehicle: Klucel + Tween-80 100 % of control and 94 % of control

O=C(O)C1Cc2c([nH]c3ccccc23)C2CCC(=O)N12 (centres undefined)
inactive: dose: 25.0 mg/kg/injection, schedule: Q04DX003 (ip), vehicle: suspension in saline 106 % of control | dose: 50.0 mg/kg/injection, schedule: Q04DX003 (ip), vehicle: suspension in saline 96 % of control | [1] 98 % of control | [2] 98 % of control

N#CC1CCCC(c2ccccc2)(C2CCCCC2)C1=O (centres undefined)
inactive: dose: 100.0 mg/kg/injection, schedule: Q01DX001 (ip), vehicle: Klucel (hydroxypropylcellulose) (HPC) 99 % of control | dose: 200.0 mg/kg/injection, schedule: Q01DX001 (ip), vehicle: Klucel (hydroxypropylcellulose) (HPC) 97 % of control | dose: 400.0 mg/kg/injection, schedule: Q01DX001 (ip), vehicle: Klucel (hydroxypropylcellulose) (HPC) 103 % of control

CN(Cc1ccccc1)C1=CC(=O)C(N(C)Cc2ccccc2)=CC1=O
inactive: dose: 50.0 mg/kg/injection, schedule: Q01DX005 (ip), vehicle: saline with Tween-80 105 % of control | dose: 100.0 mg/kg/injection, schedule: Q01DX005 (ip), vehicle: saline with Tween-80 115 % of control | dose: 200.0 mg/kg/injection, schedule: Q01DX005 (ip), vehicle: saline with Tween-80 101 % of control

CC(=O)c1ccc(-c2ccccc2)cc1
inactive: [3] 91 % of control | [4] 91 % of control | [5] 95 % of control

O=[N+]([O-])c1ccc(O)c(CN2CCC(O)(c3ccccc3)CC2)c1
inactive: [6] 108 % of control | [7] 99 % of control | [8] 107 % of control

CCCCCCC(=O)/C=C/c1cccc(OCOC)c1
inactive: [9] 87 % of control | [10] 113 % of control | dose: 200.0 mg/kg/injection, schedule: Q01DX009 (ip), vehicle: saline with Tween-80 103 % of control

O=S(=O)(ON=C1C=CC(=NOS(=O)(=O)c2ccccc2)C=C1)c1ccccc1
inactive: dose: 25.0 mg/kg/injection, schedule: Q04DX003 (ip), vehicle: Klucel (hydroxypropylcellulose) (HPC) 107 % of control and 94 % of control | dose: 50.0 mg/kg/injection, schedule: Q04DX003 (ip), vehicle: Klucel (hydroxypropylcellulose) (HPC) 103 % of control and 87 % of control and 94 % of control | [6] 94 % of control | [7] 99 % of control and 100 % of control | [8] 116 % of control

O=C(COc1ccc(Cl)cc1Cl)NC(O)C(Cl)(Cl)Cl (centres undefined)
inactive: [3] 108 % of control | [4] 116 % of control | [5] 100 % of control

CCOc1cc(C)c(CC2NC(=O)NC2=O)cc1C(C)C (centres undefined)
inactive: [1] 100 % of control | [2] 100 % of control | dose: 400.0 mg/kg/injection, schedule: Q04DX003 (ip), vehicle: suspension in saline 88 % of control

CC(=O)Nc1ccc2nc3ccc(NC(C)=O)cc3[n+](-c3ccccc3)c2c1
active: dose: 31.3 mg/kg/injection, schedule: Q01DX010 (ip), vehicle: saline 177 % of control | dose: 62.5 mg/kg/injection, schedule: Q01DX010 (ip), vehicle: saline 204 % of control | dose: 125.0 mg/kg/injection, schedule: Q01DX010 (ip), vehicle: saline 200 % of control

CCC[CH2][Sn]([CH3])([CH3])[CH2]CC[N+](C)(C)C
inactive: [11] 95 % of control | [12] 98 % of control | [13] 96 % of control

COC1=C(C)C(=O)C2=C(C1=O)C1C3CC4=C(C(=O)C(OC)=C(C)C4=O)C(CNC(=O)C(C)O)N3C(C#N)C(C2)N1C (centres undefined)
active: dose: 2.5 mg/kg/injection, schedule: Q01DX005 (ip), vehicle: Klucel (hydroxypropylcellulose) (HPC) 155 % of control and 161 % of control

N#Cc1ccccc1N=Nc1nc(N)c(C(N)=O)[nH]1
inactive: [6] 100 % of control | [7] 103 % of control | [8] 100 % of control

O=C1C(CO)=C[C@H](O)[C@@]2(CO)O[C@@H]12
inactive: dose: 6.25 mg/kg/injection, schedule: Q04DX002 (ip), vehicle: saline 100 % of control | dose: 12.5 mg/kg/injection, schedule: Q04DX002 (ip), vehicle: saline 107 % of control | dose: 25.0 mg/kg/injection, schedule: Q04DX002 (ip), vehicle: saline 107 % of control | dose: 50.0 mg/kg/injection, schedule: Q04DX002 (ip), vehicle: saline 100 % of control | dose: 100.0 mg/kg/injection, schedule: Q04DX002 (ip), vehicle: saline 121 % of control

CN(C)CC(CN1CCCC1)C(=O)c1ccccc1 (centres undefined)
inactive: dose: 3.12 mg/kg/injection, schedule: Q01DX009 (ip), vehicle: saline 96 % of control | dose: 3.13 mg/kg/injection, schedule: Q01DX009 (ip), vehicle: saline 96 % of control | dose: 6.25 mg/kg/injection, schedule: Q01DX009 (ip), vehicle: saline 99 % of control and 116 % of control (2×) | [11] 114 % of control | [12] 112 % of control and 121 % of control and 122 % of control | [13] 102 % of control

COCC1OCCCO1
inactive: dose: 60.0 mg/kg/injection, schedule: Q01DX005 (ip), vehicle: saline 102 % of control | dose: 120.0 mg/kg/injection, schedule: Q01DX005 (ip), vehicle: saline 98 % of control | dose: 240.0 mg/kg/injection, schedule: Q01DX005 (ip), vehicle: saline 97 % of control

S=c1[nH]ccn1-c1ccccc1Cl
inactive: dose: 60.0 mg/kg/injection, schedule: Q01DX005 (ip), vehicle: Klucel (hydroxypropylcellulose) (HPC) 101 % of control | dose: 120.0 mg/kg/injection, schedule: Q01DX005 (ip), vehicle: Klucel (hydroxypropylcellulose) (HPC) 106 % of control | dose: 240.0 mg/kg/injection, schedule: Q01DX005 (ip), vehicle: Klucel (hydroxypropylcellulose) (HPC) 109 % of control

CC1(C)CC(OP(=O)(N(CCCl)CCCl)N2CC2)CC(C)(C)N1O (centres undefined)
inactive: dose: 13.0 mg/kg/injection, schedule: Q01DX009 (ip), vehicle: saline + alcohol 102 % of control | dose: 25.0 mg/kg/injection, schedule: Q01DX009 (ip), vehicle: saline + alcohol 102 % of control | dose: 50.0 mg/kg/injection, schedule: Q01DX009 (ip), vehicle: saline + alcohol 114 % of control

N#Cc1c(-c2ccc(Cl)cc2)c(-c2ccc(Cl)cc2)nn(CCCl)c1=O
inactive: dose: 100.0 mg/kg/injection, schedule: Q04DX002 (ip), vehicle: saline with Tween-80 91 % of control | dose: 200.0 mg/kg/injection, schedule: Q04DX002 (ip), vehicle: saline with Tween-80 100 % of control | dose: 400.0 mg/kg/injection, schedule: Q04DX002 (ip), vehicle: saline with Tween-80 91 % of control

N#CC1CSCC1=O (centres undefined)
inactive: dose: 25.0 mg/kg/injection, schedule: Q01DX009 (ip), vehicle: saline with Tween-80 103 % of control | [9] 100 % of control | [10] 99 % of control

CC1=C2CC(C)(C)/C=C\C(=O)/C(C)=C\C3=CCCC3(O2)C1=O (centres undefined)
inactive: dose: 5.0 mg/kg/injection, schedule: Q01DX005 (ip), vehicle: Klucel (hydroxypropylcellulose) (HPC) 110 % of control | dose: 10.0 mg/kg/injection, schedule: Q01DX005 (ip), vehicle: Klucel (hydroxypropylcellulose) (HPC) 120 % of control | dose: 20.0 mg/kg/injection, schedule: Q01DX005 (ip), vehicle: Klucel (hydroxypropylcellulose) (HPC) 107 % of control

CCCOC1=NC2=NC(N3CCCC3)=NC3=C(Cl)C=C(Cl)C(=N1)N23
inactive: dose: 25.0 mg/kg/injection, schedule: Q04DX002 (ip), vehicle: Klucel + Tween-80 94 % of control | dose: 50.0 mg/kg/injection, schedule: Q04DX002 (ip), vehicle: Klucel + Tween-80 87 % of control | dose: 100.0 mg/kg/injection, schedule: Q04DX002 (ip), vehicle: Klucel + Tween-80 116 % of control and 86 % of control

CC(=O)Oc1cc2c(=O)oc3c(OC(C)=O)c(OC(C)=O)c(OC(C)=O)c4c(=O)oc(c1OC(C)=O)c2c34
inactive: [12] 101 % of control | [13] 86 % of control | dose: 100.0 mg/kg/injection, schedule: Q01DX009 (ip), vehicle: Klucel (hydroxypropylcellulose) (HPC) 86 % of control | dose: 200.0 mg/kg/injection, schedule: Q01DX009 (ip), vehicle: Klucel (hydroxypropylcellulose) (HPC) 86 % of control | [14] 88 % of control | dose: 400.0 mg/kg/injection, schedule: Q01DX009 (ip), vehicle: saline 94 % of control

CC(C)(C)C(=O)NC(Cc1cnc[nH]1)C(=O)O (centres undefined)
inactive: [13] 100 % of control | dose: 100.0 mg/kg/injection, schedule: Q01DX009 (ip), vehicle: saline 106 % of control | [14] 108 % of control
